Where “and” joins values, the source holds several entries; their conditions need not be identical. Identical values can stand only once.
Experiments:
aged-impaired (AI) rats = experiment: eight-arm Radial Arm Maze (RAM) task with one-hour delay, spatial memory retention; assay type: in vivo, rat; details: drug on its own (levetiracetam i.p., valproate subcutaneous)
Procedure: The effects of levetiracetam on the spatial memory retention of aged-impaired (AI) rats were assessed in a Radial Arm Maze (RAM) behavioral task using vehicle control and five different dosage levels of levetiracetam (1.25 mg/kg/day, 2.5 mg/kg/day, 5 mg/kg/day, 10 mg/kg/day and 20 mg/kg/day). RAM behavioral tasks were preformed on ten AI rats. All six treatment conditions were tested on all ten rats, as described above for the MWM test. The RAM apparatus used consisted of eight equidistantly-spaced arms. An elevated maze arm (7 cm width×75 cm length) projected from each facet of an octagonal center platform (30 cm diameter, 51.5 cm height). Clear side walls on the arms were 10 cm high and were angled at 65° to form a trough. A food well (4 cm diameter, 2 cm deep) was located at the distal end of each arm. Froot Loops™ (Kellogg Company) were used as rewards. Blocks constructed of Plexiglas™ (30 cm height×12 cm width) could be positioned to prevent entry to any arm. Numerous extra maze cues surrounding the apparatus were also provided. The AI rats were initially subjected to a pre-training test (Chappell et al. Neuropharmacology 37: 481-487, 1998). The pre-training test consisted of a habituation phase (4 days), a training phase on the standard win-shift task (18 days) and another training phase (14 days) in which a brief delay was imposed between presentation of a subset of arms designated by the experimenter (e.g., 5 arms available and 3 arms blocked) and completion of the eight-arm win-shift task (i.e., with all eight arms available). In the habituation phase, rats were familiarized to the maze for an 8-minute session on four consecutive days. In each of these sessions food rewards were scattered on the RAM, initially on the center platform and arms and then progressively confined to the arms. After this habituation phase, a standard training protocol was used, in which a food pellet was located at the end of each arm. Rats received one trial each day for 18 days. Each daily trial terminated when all eight food pellets had been obtained or when either 16 choices were made or 15 minutes had elapsed. After completion of this training phase, a second training phase was carried out in which the memory demand was increased by imposing a brief delay during the trial. At the beginning of each trial, three arms of the eight-arm maze were blocked. Rats were allowed to obtain food on the five arms to which access was permitted during this initial ‘information phase’ of the trial. Rats were then removed from the maze for 60 seconds, during which time the barriers on the maze were removed, thus allowing access to all eight arms. Rats were then placed back onto the center platform and allowed to obtain the remaining food rewards during this ‘retention test’ phase of the trial. The identity and configuration of the blocked arms varied across trials. The number of “errors” the AI rats made during the retention test phase was tracked. An error occurred in the trial if the rats entered an arm from which food had already been retrieved in the pre-delay component of the trial, or if it re-visited an arm in the post-delay session that had already been visited. After completion of the pre-training test, rats were subjected to trials with more extended delay intervals, i.e., a one-hour delay, between the information phase (presentation with some blocked arms) and the retention test (presentation of all arms). […]

MAM-treated rats [1] = details: administered systemically and directly infused into the ventral HPC; cited from earlier work
HPC neurons = details: saline-treated and MAM-treated animals; cited from earlier work
MAM-treated rats [2] = details: cited from earlier work

Row | Compound | dose effective in reducing the number of errors (aged-impaired (AI) rats) [mg/kg] | dose not effective in reducing the number of errors (aged-impaired (AI) rats) | number of spontaneously active DA neurons in the ventral tegmental area (VTA) (MAM-treated rats [1]) | cortical-evoked responses of HPC neurons (HPC neurons) | increased locomotor response to amphetamine (MAM-treated rats [2])
1 | CCCC(CCC)C(=O)O [Valproate] | 100 | 25 mg/kg and 50 mg/kg | – | – | –
2 | C#Cc1ccc2c(c1)C(c1ccccc1F)=N[C@H](C)c1c(C(=O)OCC)ncn1-2 [SH-053-2′F—R—CH3] | – | – | reduces the number of spontaneously active DA neurons | diminished cortical-evoked responses | is reduced

— patent publication US10624875B2, “Methods and compositions for treating schizophrenia” (The Johns Hopkins University, priority 2012, dated 2020)
